Experimental findings from patent publication US20100022404A1, “Gene/protein marker for prediction or diagnosis of pharmacological efficacy of aurora a inhibitor” (priority 2006, published 2010) are described below.

Structures are written as SMILES.

The subject of test [1] is PD marker candidate genes (BIRC5, KNTC2, PRC1, TACC3, DLG7) in HeLa-S3 cells. Briefly: Real-time PCR of PD marker candidate genes after treatment with Aurora A inhibitor (Example 2). To be noted: 24 hours, FIGS. 6 to 10. In kind it is cell-based, human. As for the experimental part: A predetermined concentration of 6-((4-(2,3-difluorobenzoyl)piperazin-1-yl)methyl)-N-thiazol-2-ylpyridin-2-amine was acted on HeLa-S3 cells; and after 24 hours, the cells were collected, the total RNA was isolated and then converted into cDNA, and this was processed for real-time PCR in the same manner as in Example 1.

Test [2] deals with Aurora B (Thr232) phosphorylation. Briefly: Western blotting of total Aurora B and phospho-Aurora B (Thr232) in synchronized HeLa S3 cells with Aurora inhibitors (Example 7). It counts as cell-based, human. The settings on record: 300 nM added 4 hours after release, sampling 0 to 24 hours, FIG. 24. As for the experimental part: First, HeLa S3 cells were synchronized at the GI/S boundary by the above-mentioned double-thymidine block, and after 4 hours from the start of release, a control (DMSO, final 0.5%), an Aurora A-selective inhibitor 6-((4-(2,3-difluorobenzoyl)piperazin-1-yl)methyl)-N-thiazol-2-ylpyridin-2-amine (in FIG. 24, this is shown as “Aurora A Inhibitor 1”), an Aurora B inhibitor ZM477439 (J. Cell. Biol., Vol. 161, p. 267, 2003) or a pan-Aurora inhibitor VX-680 was added in an amount of 300 nM, followed by sampling at regular intervals for 0 to 24 hours. Next, the samples were analyzed for total Aurora B and phospho-Aurora B (Thr232) expression by western blotting.
For orientation: A western blot detects proteins with antibodies after separation by electrophoresis.

Test [3] relates to histone H3 (Ser28) phosphorylation. Put plainly: Western blotting of histone H3 Ser28 and Ser10 phosphorylation in asynchronous HeLa S3 cells (Example 8). It counts as cell-based, human. The settings on record: concentration series, compared with phospho-Aurora B (Thr232), FIG. 26.
For test [4], the system named is HeLa S3 cells. Briefly: Cell cycle analysis by flow cytometry in asynchronous HeLa S3 cells with Aurora A-selective inhibitor (Example 6). It counts as cell-based, human. The settings on record: 8 hours and 24 hours, FIGS. 20, 21. As for the experimental part:
(§1) First, asynchronously-cultured HeLa S3 cells were planted in an amount of 1×10^6 cells, and incubated overnight at 37° C. in 5% CO2. At 10:00 on the next day, the medium was exchanged with a medium to which 6-((4-(3-chloro-2-fluorobenzoyl)piperazin-1-yl)methyl)-N-thiazol-2-ylpyridin-2-amine had been added to be a final concentration of 0, 30, 100, 300, 1000, 3000, 10000, 30000 nM, and then, after 8 hours and 24 hours, the cells were peeled with trypsin and collected. A half of the cells was analyzed by western blotting; ¼ of the cells were analyzed for cell cycle through flow cytometry; and the last remaining ones were analyzed for phosphorylation of histone H3 (Ser10). The cell samples processed in the same manner were analyzed for expression profiling through TaqMan-PCR.
On the technique in general: A flow cytometer gives signals particle by particle.

Test [5] has as its system Aurora B (Thr232) phosphorylation. Put plainly: Western blotting of phospho-Aurora B (Thr232), Aurora B, Survivin, Plk1 in asynchronous HeLa S3 cells with Aurora A-selective inhibitor (Example 6). In kind it is cell-based, human. To be noted: for ratio of phospho-Aurora B/Aurora B: based on the compound concentration 0 nM of 1. As for the experimental part: as §1
Test [6] deals with histone H3 (Ser10) phosphorylation. Briefly: Histone H3 (Ser10) phosphorylation by flow cytometry in HeLa S3 cells (Example 6). It counts as cell-based, human. The settings on record: FIG. 23. As to the method:
as §1

Test [7] has as its system PD marker candidate genes in HeLa-luc cancer graft. Briefly: Expression change of PD marker candidate genes in planted cancer, continuous administration to rat (Example 3). In kind it is in vivo, F344/N Jcl-rnu female nude rat. To be noted: nude rat with HeLa-luc graft, intravenous drip infusion for 48 hours. As for the experimental part: (§2) First, a cervical cancer strain HeLa-luc cells were subcutaneously transplanted to the back of an F344/N Jcl-rnu female nude rat. After 1 week, a […] cancer nude rat was subjected to femoral vein cannulation operation; and using a syringe pump, an Aurora A inhibitor 6-((4-(2-fluoro-3-(trifluoromethyl)benzoyl)piperazin-1-yl)methyl)-N-1H-pyrazol-3-ylpyrazin-2-amine was administered by intravenous drip infusion for 48 hours. After the administration, the collected cancer graft and the skin specimen were frozen and stored in liquid nitrogen.
Next, the total RNA was isolated from the collected cancer graft and formed into cDNA, which was checked for the expression change of the PD marker candidate genes. In addition to 5 genes identified in culture cells, Aurora A (AurA) and Aurora B (AurB) were also investigated as candidate genes. The primer probe sets for Aurora A and B are as follows. For every primer and probe, a human gene was used as the template.

The subject of test [8] is PD marker candidate genes in rat skin. Briefly: Expression change of PD marker candidate genes in skin, continuous administration to rat (Example 4). To be noted: same rat skin as Example 3 (intravenous drip infusion for 48 hours); FIGS. 13 to 16. It counts as in vivo. As to the method:
as §2
The same rat skin as that used in Example 3 was checked for the expression change of PD marker candidate genes through real-time PCR. The primers of the candidate genes in the rat are as shown below. For every primer and probe, a rat gene was used as the template. The probe was modified with FAM/TAMRA.

Where [9] appears, read: HeLa S3 cells, 8 hours and 24 hours.
Setting [10] is: HeLa S3 cells, expression admitted in the background with no compound addition.

In the case of `O=C(c1cccc(F)c1F)N1CCN(Cc2cccc(Nc3nccs3)n2)CC1` [6-((4-(2,3-difluorobenzoyl)piperazin-1-yl)methyl)-N-thiazol-2-ylpyridin-2-amine], the “expression level of the PD marker candidate genes (BIRC5, KNTC2, PRC1, TACC3, DLG7)” value in test [1] is “increased dependently on the Aurora A inhibitor concentration”. In test [2], the “Aurora B expression” value is “expressed Aurora B to a high level even after 10 hours” and the “phospho-Aurora B (Thr232) expression” value is listed as “remarkably increased”. Besides, the “phospho-histone H3 (Ser28) induction by inhibitor” value in test [3] is recorded as “concentration-dependent induction”.
For the molecule `O=C(c1cccc(Cl)c1F)N1CCN(Cc2cccc(Nc3nccs3)n2)CC1` [6-((4-(3-chloro-2-fluorobenzoyl)piperazin-1-yl)methyl)-N-thiazol-2-ylpyridin-2-amine], in test [4], the “concentration from which the proportion of the M-stage began to increase” value was “around 300 nM” and the “concentration up to which the M-stage was kept” value is “around 10 μM”. For the same molecule, the “concentration range in which Aurora B inhibition begins (phosphorylation of Aurora B again inhibited)” value in test [5] (HeLa S3 cells) was > 30 µM. In test [5] (HeLa S3 cells, 0-30000 nM, exposure 8 hours and 24 hours, FIG. 22), the “expression of phospho-Aurora B (Thr232)” value is on record as “increased dependently on the administration concentration”. In test [5] (setting [9]), the “concentration of phosphorylation depression of Aurora B (considered Aurora B inhibition)” value was ≥ 30 µM and the “expression level of Aurora B” value was “did not change so much”. Besides, in test [5] (setting [10]), the “expression induction window of Plk1” value is “at most 3.5 times” and the “expression induction window of Survivin” value is “at most 3.5 times”. Also, in test [5] (exposure period of 8 hours), the “ratio of phospho-Aurora B/Aurora B” value is “at most 16 times”. In addition, the “ratio of phospho-Aurora B/Aurora B” value in test [5] (exposure period of 24 hours) was “up to 10 times”. Also, in test [6], the “Histone H3 (Ser10) phosphorylation in flow cytometry” value is “could not take a large window”.
As to `O=C(c1cccc(C(F)(F)F)c1F)N1CCN(Cc2cncc(Nc3cc[nH]n3)n2)CC1` [6-((4-(2-fluoro-3-(trifluoromethyl)benzoyl)piperazin-1-yl)methyl)-N-1H-pyrazol-3-ylpyrazin-2-amine], in test [7], the “expression of BIRC5 in cancer graft” value was “significantly increased”, the “expression of DLG7 in cancer graft” value is “significantly increased” and the “peak of the expression change (dose)” value is 1 mpk. Further, in test [7] (FIGS. 11 and 12), the “expression level of the PD marker candidate genes in cancer graft” value was “increased”.
On to `O=C(O)[C@]1(Cc2cccc(Nc3nccs3)n2)CC[C@@H](Oc2cccc(Cl)c2F)CC1` [trans-4-(3-chloro-2-fluorophenoxy)-1-((6-(1,3-thiazol-2-ylamino)pyridin-2-yl)methyl)cyclohexanecarboxylic acid], for which the “expression level of the candidate genes in rat skin” value in test [8] is on record as “significantly increased”.
Turning to `COc1cc2c(Nc3ccc(NC(=O)c4ccccc4)cc3)ncnc2cc1OCCCN1CCOCC1` [ZM477439], in test [2], the “Aurora B expression” value is listed as “detected on the same level as that in the control” and the “phospho-Aurora B (Thr232) expression” value is “no phospho-Aurora B was detected at all”.
With `Cc1cc(Nc2cc(N3CCN(C)CC3)nc(Sc3ccc(NC(=O)C4CC4)cc3)n2)n[nH]1` [VX-680], in test [2], the “Aurora B expression” value is listed as “detected on the same level as that in the control” and the “phospho-Aurora B (Thr232) expression” value was “no phospho-Aurora B was detected at all”. In test [3], the “phospho-histone H3 (Ser28) induction by inhibitor” value is on record as “did not have a phosphorylation band at all”.
